The target in one test is T1, h P2X3 (Homo sapiens, UniProt P56373).
T1 sequence (P56373 1-397): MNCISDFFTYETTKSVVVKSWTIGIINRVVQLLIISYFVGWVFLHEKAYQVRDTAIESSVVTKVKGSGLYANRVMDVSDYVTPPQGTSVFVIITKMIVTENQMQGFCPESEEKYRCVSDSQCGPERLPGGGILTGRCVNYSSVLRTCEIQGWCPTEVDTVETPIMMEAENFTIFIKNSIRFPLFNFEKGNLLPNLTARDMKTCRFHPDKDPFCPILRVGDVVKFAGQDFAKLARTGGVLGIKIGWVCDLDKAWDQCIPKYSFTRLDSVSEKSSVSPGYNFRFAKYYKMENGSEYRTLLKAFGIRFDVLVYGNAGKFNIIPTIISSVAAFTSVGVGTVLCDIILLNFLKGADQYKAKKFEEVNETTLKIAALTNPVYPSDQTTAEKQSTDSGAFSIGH
The test is described as follows: In vitro electrophysiology assay for P2X3 (automated whole-cell patch clamp, α,β-MeATP agonist). The format is cell-based. As to the method: In Vitro Electrophysiology Assay for P2X3
(§1) Cells expressing P2X3 receptors were grown according to standard practice and maintained at 37° C. in a 5% humidified CO2 atmosphere. The cells were seeded into T175 flask 2 days prior to the day of the assay and dissociated from the flasks using TrypLE when grown to confluence of 80-90%. The dissociated cells were resuspended in serum free media at a cell density of 3×10^6 cells/ml and loaded onto the Sophion Qube automated patch-clamp system. The extracellular assay buffer contained 145 mM NaCl, 4 mM KCl, 2 mM CaCl2, 1 mM MgCl2, 10 mM HEPES, and 10 mM glucose at pH 7.4. The intracellular assay solution contained 140 mM CsF, 10 mM NaCl, 10 mM EGTA, 10 mM HEPES at pH 7.2. Agonist stock solutions were prepared in H2O and diluted in bath solution prior to use. All antagonists were prepared as 10 mM stock solutions in DMSO and diluted in bath solution prior to use. All experiments were performed under the whole-cell patch clamp configuration at room temperature with 384 individual cells being voltage clamped at −60 mV simultaneously on the Sophion Qube instrument. Two baseline responses were established with the application of α,β-MeATP (800 nM), with the subsequent agonist applications being washed out using extracellular assay buffer containing 0.5 U/ml apyrase. Following the second agonist application, antagonist was incubated in the absence of α,β-MeATP for 10 minutes. After antagonist preincubation, 800 nM α,β-MeATP and antagonist were co-administered to determine the inhibitory effect of the antagonist. One concentration of an antagonist was assessed against a single cell, with different concentrations of the antagonist applied to other cells on the 384 recording substrate. The control P2X3 current amplitude was taken from the peak current amplitude from the second agonist response prior to preincubation with antagonist. The peak P2X3 current amplitude in the presence of antagonist was used to calculate the inhibitory effect at each concentration of the antagonist according to the following equation:
Percentage inhibition of P2X3=(P2X3 control peak amplitude−P2X3 antagonist peak amplitude)/P2X3 control peak amplitude)*100
Concentration-response curves were constructed from ten different concentrations with each concentration of antagonist tested on at least two individual cells. The concentration of the antagonist to inhibit P2X3 current by 50% (IC50) was determined by fitting the data with the following equation:
Y=a+[(b−a)/(1+10^((log c−x)d)]
Where ‘a’ is minimum response, ‘b’ is maximum response, ‘c’ is IC50 and ‘d’ is Hill slope.
Background: Patch clamp records ionic current or voltage across a cell membrane.

A further test concerns the target T2, h P2X2/3 (Homo sapiens, UniProt P56373+Q9UBL9).
T2 construct: host or cells: cells not described; same protocol as the P2X3 assay
T2 sequence (P56373 1-397): T1 sequence (P56373 1-397)
T2 sequence (Q9UBL9 1-471): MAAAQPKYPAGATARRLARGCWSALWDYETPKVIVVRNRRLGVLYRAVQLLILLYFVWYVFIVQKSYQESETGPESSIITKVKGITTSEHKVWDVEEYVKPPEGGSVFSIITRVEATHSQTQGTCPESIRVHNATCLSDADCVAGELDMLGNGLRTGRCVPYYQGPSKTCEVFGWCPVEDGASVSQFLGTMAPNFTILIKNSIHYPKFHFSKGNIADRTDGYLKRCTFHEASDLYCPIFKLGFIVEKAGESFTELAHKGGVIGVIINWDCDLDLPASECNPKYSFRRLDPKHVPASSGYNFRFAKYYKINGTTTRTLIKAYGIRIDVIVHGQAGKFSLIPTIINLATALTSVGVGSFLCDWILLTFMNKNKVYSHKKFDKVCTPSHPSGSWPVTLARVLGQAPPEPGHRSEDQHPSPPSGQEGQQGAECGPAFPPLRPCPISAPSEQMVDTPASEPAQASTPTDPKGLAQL
The test is described as follows: In vitro electrophysiology assay for P2X2/3 (same protocol, 10 μM ATP agonist). Type of test: cell-based. Conditions: Table 3, mean current seven seconds after agonist, read-out: h P2X2/3 (pIC50 range of activity) (converted). As to the method: as §1, with “equation: […]” for “equation:”
In vitro Electrophysiology Assay for P2X2/3
Representative compound of the present invention have been also tested for P2X2/3 receptor.
The same assay protocol was used for the P2X2/3 assay as the P2X3 assay with two modifications: 1) 10 μM ATP was used as the agonist; and 2) the mean current amplitude was measured seven seconds after the application of agonist.

[1] abbreviates: Table 2, 800 nM α,β-MeATP, peak current, read-out: h P2X3 (pIC50 range of activity) (converted).
The mark [2] stands for this setting: Table 3, 800 nM α,β-MeATP, peak current, read-out: h P2X3 (pIC50 range of activity) (converted).

Where two headings read alike, the source gives them in different places.

Take `Cc1nnc(C(C)Nc2ncnc3c(OCC(F)F)cc(-c4ccc(F)cn4)cc23)s1` (single isomer, unassigned; enantiomer 1) [Example 6, Single enantiomer 1 of 8-(2,2-difluoroethoxy)-6-(5-fluoro-2-pyridyl)-N-[1-(5-methyl-1,3,4-thiadiazol-2-yl)ethyl]quinazolin-4-amine]: the IC50 at h P2X3 (setting [1]) was less than 316 nM; at h P2X3 (setting [2]) it was less than 316 nM; on h P2X2/3, 3160 to 31600 nM.
Consider `Cc1nc([C@@H](C)Nc2ncnc3c(S(=O)(=O)N(C)C)cc(-c4ccc(F)cc4)cc23)no1` (stereo in doubt) [Example 15, 6-(4-fluorophenyl)-N,N-dimethyl-4-((1-(5-methyl-1,2,4-oxadiazol-3-yl)ethyl)amino)quinazoline-8-sulfonamide], for which the IC50 on h P2X3 (setting [1]) was less than 316 nM; on h P2X3 (setting [2]), less than 316 nM; at h P2X2/3, 316 to 3160 nM.
Turning to `Cc1ccc(CNc2ncnc3c(OCC(F)F)cc(-c4ccc(F)cc4)cc23)nn1` [Example 1, 8-(2,2-difluoroethoxy)-6-(4-fluorophenyl)-N-((6-methylpyridazin-3-yl)methyl)quinazolin-4-amine], the IC50 on h P2X3 (setting [1]) is less than 316 nM; on h P2X3 (setting [2]), less than 316 nM; at h P2X2/3, 3160 to 31600 nM.
For the molecule `C[C@@H](Nc1ncnc2c(OCC(F)F)cc(-c3ccc(F)cc3)cc12)c1cnc(C(F)(F)F)nc1` [Example 2, (R)-8-(2,2-difluoroethoxy)-6-(4-fluorophenyl)-N-(1-(2-(trifluoromethyl)pyrimidin-5-yl)ethyl)quinazolin-4-amine], the figures for the IC50 on h P2X3 (setting [1]), on h P2X3 (setting [2]) and on h P2X2/3 were less than 316 nM, less than 316 nM and 316 to 3160 nM, respectively.
In the case of `Cc1cnc(-c2cc(OCC(F)F)c3ncnc(NCc4ccc(C)nn4)c3c2)nc1` [Example 9, 8-(2,2-difluoroethoxy)-N-[(6-methylpyridazin-3-yl)methyl]-6-(5-methylpyrimidin-2-yl)quinazolin-4-amine], the IC50 is less than 316 nM on h P2X3 (setting [1]), less than 316 nM at h P2X3 (setting [2]) and 316 to 3160 nM on h P2X2/3.
Take `Cc1ccc([C@@H](C)Nc2ncnc3c(S(=O)(=O)N4CCC(F)(F)C4)cc(-c4ccc(F)cc4)cc23)nn1` [Example 16]: the IC50 on h P2X3 (setting [1]) was less than 316 nM; on h P2X3 (setting [2]) it was less than 316 nM; at h P2X2/3 it was 316 to 3160 nM.
Turning to `Cc1nc([C@@H](C)Nc2ncnc3c(S(=O)(=O)N4CCC(F)(F)C4)cc(-c4ccc(F)cc4)cc23)no1` [Example 17, (R)-8-((3,3-difluoropyrrolidin-1-yl)sulfonyl)-6-(4-fluorophenyl)-N-(1-(5-methyl-1,2,4-oxadiazol-3-yl)ethyl)quinazolin-4-amine], the values for the IC50 at h P2X3 (setting [1]), on h P2X3 (setting [2]) and on h P2X2/3 were less than 316 nM, less than 316 nM and 316 to 3160 nM, respectively.
For the molecule `CNS(=O)(=O)c1cc(-c2ccc(F)cc2)cc2c(N[C@H](C)c3ccc(C)nn3)ncnc12` [Example 21, (R)-6-(4-fluorophenyl)-N-methyl-4-((1-(6-methylpyridazin-3-yl)ethyl)amino)quinazoline-8-sulfonamide], the IC50 was less than 316 nM at h P2X3 (setting [1]), less than 316 nM on h P2X3 (setting [2]) and 3160 to 31600 nM on h P2X2/3.
`CNS(=O)(=O)c1cc(-c2ccc(F)cc2)cc2c(N[C@H](C)c3noc(C)n3)ncnc12` [Example 22, (R)-6-(4-fluorophenyl)-N-methyl-4-((1-(5-methyl-1,2,4-oxadiazol-3-yl)ethyl)amino)quinazoline-8-sulfonamide]: the results for the IC50 on h P2X3 (setting [1]), on h P2X3 (setting [2]) and on h P2X2/3 were less than 316 nM, less than 316 nM and 3160 to 31600 nM, respectively.
On to `Cc1ccc([C@@H](C)Nc2ncnc3c([S+](C)[O-])cc(-c4ccc(F)cc4)cc23)nn1` (stereo partly drawn) [Example 27, 6-(4-fluorophenyl)-N-((R)-1-(6-methylpyridazin-3-yl)ethyl)-8-(methylsulfinyl)quinazolin-4-amine], for which the results for the IC50 on h P2X3 (setting [1]), on h P2X3 (setting [2]) and at h P2X2/3 were less than 316 nM, less than 316 nM and 316 to 3160 nM, respectively.
With `C[C@@H](Nc1ncnc2c(OC3CCNC3=O)cc(-c3ccc(F)cc3)cc12)c1cnc(C(F)(F)F)nc1` (stereo partly drawn) [Example 34, 3-((6-(4-fluorophenyl)-4-(((R)-1-(2-(trifluoromethyl)pyrimidin-5-yl)ethyl)amino)quinazolin-8-yl)oxy)pyrrolidin-2-one], the figures for the IC50 on h P2X3 (setting [1]), on h P2X3 (setting [2]) and on h P2X2/3 were less than 316 nM, less than 316 nM and 316 to 3160 nM, respectively.
For `COC(=O)C1(NC(=O)COc2cc(-c3ccc(F)cc3)cc3c(NCc4ccc(C)nn4)ncnc23)CC1` [Example 42, Methyl 1-(2-((6-(4-fluorophenyl)-4-(((6-methylpyridazin-3-yl)methyl)amino)quinazolin-8-yl)oxy)acetamido)cyclopropane-1-carboxylate], the IC50 was 316 to 3160 nM at h P2X3 (setting [1]), 316 to 3160 nM at h P2X3 (setting [2]) and 3160 to 31600 nM at h P2X2/3.
With `O=C(NC1CCOc2ccc(-c3ccc(F)cc3)cc21)c1cnc(C(F)(F)F)nc1` (stereo not shown) [comparative Example A, N-(6-(4-fluorophenyl)chroman-4-yl)-2-(trifluoromethyl)pyrimidine-5-carboxamide, reference compound], the IC50 on h P2X3 (comparative example, read-out: activity on receptor P2X3 expressed as pIC50 (converted)) is more than 31600 nM.

For the origin of these results see patent US20240025880A1 (CHIESI FARMACEUTICI S.P.A., priority 2020, published 2024).
